melting point | SMILES
163.1 °C | CC(C)(C)c1ccc(OCC(=O)NCc2ccc(NS(C)(=O)=O)cc2)cc1 [Example 9, 2-(4-tert-Butylphenoxy)-N-{4-[(methylsulfonyl)amino]benzyl}acetamide]
112.3 °C | CC(C)(C)c1ccc(OCC(=O)NCc2ccc(NS(C)(=O)=O)c(O)c2)cc1 [Example 12, 2-(4-tert-Butylphenoxy) -N-{3-hydroxy-4-[(methylsulfonyl)amino]benzyl}acetamide]
